Laboratory results published in patent publication US20250098679A1, “HERBICIDAL PYRIDONE DERIVATIVES” (SYNGENTA CROP PROTECTION AG, priority 2021, published 2025).

Experiments:
Assay type in all cases: in vivo
Settings in all cases: evaluated after 13 days
[1] = tested on: Ipomoea hederacea (IPOHE); assay: Post-emergence Test, Ipomoea hederacea (IPOHE); parameters: key to percentage damage caused to the plant, IPOHE (five-point scale): 5=81-100%, 4=61-80%, 3=41-60%, 2=21-40%, 1=0-20% damage
Procedure, shortened: (§1)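 Scores are percentage plant damage on a 1–5 scale (1=0-20%, 2=21-40%, 3=41-60%, 4=61-80%, 5=81-100%), read 13 days after treatment. Pots received a spray at 1000 g/ha unless otherwise stated, formulated in acetone/water (50:50) containing 0.5% Tween 20.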

[2] = tested on: Zea mays (ZEAMX); assay: Pre-emergence Test, Zea mays (ZEAMX)
[3] = tested on: Amaranthus retoflexus (AMARE); assay: Pre-emergence Test, Amaranthus retoflexus (AMARE)
[4] = tested on: Setaria faberi (SETFA); assay: Pre-emergence Test, Setaria faberi (SETFA)
[5] = tested on: Echinochloa crus-galli (ECHCG); assay: Pre-emergence Test, Echinochloa crus-galli (ECHCG)
[6] = tested on: Amaranthus retoflexus (AMARE); assay: Post-emergence Test, Amaranthus retoflexus (AMARE); parameters: key to percentage damage caused to the plant, AMARE (five-point scale): 5=81-100%, 4=61-80%, 3=41-60%, 2=21-40%, 1=0-20% damage
Procedure, shortened: as §1

[7] = tested on: Ipomoea hederacea (IPOHE); assay: Pre-emergence Test, Ipomoea hederacea (IPOHE)
[8] = tested on: Amaranthus palmeri (AMAPA); assay: Post-emergence Test, Amaranthus palmeri (AMAPA); parameters: key: 5=81-100%, 4=61-80%, 3=41-60%, 2=21-40%, 1=0-20% damage
Procedure, shortened: as §1

[9] = tested on: Zea mays (ZEAMX); assay: Post-emergence Test, Zea mays (ZEAMX); parameters: key to percentage damage caused to the plant, ZEAMX (five-point scale): 5=81-100%, 4=61-80%, 3=41-60%, 2=21-40%, 1=0-20% damage
Procedure, shortened: as §1

[10] = tested on: Echinochloa crus-galli (ECHCG); assay: Post-emergence Test, Echinochloa crus-galli (ECHCG); parameters: key to percentage damage caused to the plant, ECHCG (five-point scale): 5=81-100%, 4=61-80%, 3=41-60%, 2=21-40%, 1=0-20% damage
Procedure, shortened: as §1

[11] = tested on: Setaria faberi (SETFA); assay: Post-emergence Test, Setaria faberi (SETFA); parameters: key to percentage damage caused to the plant, SETFA (five-point scale): 5=81-100%, 4=61-80%, 3=41-60%, 2=21-40%, 1=0-20% damage
Procedure, shortened: as §1

[12] = tested on: Amaranthus palmeri (AMAPA); assay: Pre-emergence Test, Amaranthus palmeri (AMAPA)

Row | SMILES | percentage damage caused to the plant, IPOHE (five-point scale) ([1]; 250 g/Ha) | percentage damage caused to the plant, IPOHE (five-point scale) ([1]; 1000 g/ha) | Pre-emergence Test ZEAMX, percentage damage caused to the plant (five-point scale) ([2]; 1000 g/ha) | Pre-emergence Test AMARE, percentage damage caused to the plant (five-point scale) ([3]; 1000 g/ha) | Pre-emergence Test SETFA, percentage damage caused to the plant (five-point scale) ([4]; 1000 g/ha) | Pre-emergence Test ECHCG, percentage damage caused to the plant (five-point scale) ([5]; 1000 g/ha) | percentage damage caused to the plant, AMARE (five-point scale) ([6]; 250 g/Ha) | percentage damage caused to the plant, AMARE (five-point scale) ([6]; 1000 g/ha) | Pre-emergence Test IPOHE, percentage damage caused to the plant (five-point scale) ([7]; 1000 g/ha) | percentage damage caused to the plant, AMAPA (five-point scale) ([8]; 250 g/Ha) | percentage damage caused to the plant, AMAPA (five-point scale) ([8]; 1000 g/ha) | percentage damage caused to the plant, ZEAMX (five-point scale) ([9]; 250 g/Ha) | percentage damage caused to the plant, ZEAMX (five-point scale) ([9]; 1000 g/ha) | percentage damage caused to the plant, ECHCG (five-point scale) ([10]; 250 g/Ha) | percentage damage caused to the plant, ECHCG (five-point scale) ([10]; 1000 g/ha) | percentage damage caused to the plant, SETFA (five-point scale) ([11]; 250 g/Ha) | percentage damage caused to the plant, SETFA (five-point scale) ([11]; 1000 g/ha) | Pre-emergence Test AMAPA, percentage damage caused to the plant (five-point scale) ([12]; 1000 g/ha) | Pre-emergence Test ZEAMX, percentage damage caused to the plant (five-point scale) ([2]; 250 g/Ha (*)) | Pre-emergence Test AMARE, percentage damage caused to the plant (five-point scale) ([3]; 250 g/Ha (*)) | further results
1 | CCn1c(Cn2nccn2)cc(=O)c(C(=O)O)c1-c1ccc(Cl)c(Cl)c1 [Compound 48, 2-(3,4-dichlorophenyl)-1-ethyl-4-oxo-6-(triazol-2-ylmethyl)pyridine-3-carboxylic acid] | 4 (4=61-80%) | 2 (2=21-40%) | 0 | 0 | 5 (5=81-100%) | 5 (5=81-100%) | 1 (1=0-20%) | 0 | 0 | 1 (1=0-20%) | 3 (3=41-60%) | 0 | 3 (3=41-60%) | 3 (3=41-60%) | 5 (5=81-100%) | 4 (4=61-80%) | 4 (4=61-80%) | 1 (1=0-20%) | – | – | –
2 | CCn1c(Cn2ccc(C(F)(F)F)n2)c(Br)c(=O)c(C(=O)O)c1-c1ccc(Cl)c(Cl)c1 [Compound 18, 5-bromo-2-(3,4-dichlorophenyl)-1-ethyl-4-oxo-6-[[3-(trifluoromethyl)pyrazol-1-yl]methyl]pyridine-3-carboxylic acid] | 1 (1=0-20%) | 1 (1=0-20%) | 0 | 0 | 2 (2=21-40%) | 1 (1=0-20%) | 1 (1=0-20%) | 1 (1=0-20%) | 0 | 0 | 2 (2=21-40%) | 1 (1=0-20%) | 2 (2=21-40%) | 1 (1=0-20%) | 3 (3=41-60%) | 1 (1=0-20%) | 3 (3=41-60%) | 0 | – | – | –
3 | CCn1c(Cn2ccc(C(F)F)n2)cc(=O)c(C(=O)O)c1-c1ccc(Cl)c(Cl)c1 [Compound 186] | 4 (4=61-80%) | 4 (4=61-80%) | 3 (3=41-60%) | 2 (2=21-40%) | 5 (5=81-100%) | 5 (5=81-100%) | 1 (1=0-20%) | 3 (3=41-60%) | 4 (4=61-80%) | 2 (2=21-40%) | 2 (2=21-40%) | 1 (1=0-20%) | 1 (1=0-20%) | 4 (4=61-80%) | 4 (4=61-80%) | 4 (4=61-80%) | 4 (4=61-80%) | 1 (1=0-20%) | 0 | 0 | Pre-emergence Test SETFA, percentage damage caused to the plant (five-point scale) ([4]; 250 g/Ha (*)): 5 (5=81-100%); Pre-emergence Test ECHCG, percentage damage caused to the plant (five-point scale) ([5]; 250 g/Ha (*)): 4 (4=61-80%); Pre-emergence Test IPOHE, percentage damage caused to the plant (five-point scale) ([7]; 250 g/Ha (*)): 2 (2=21-40%); Pre-emergence Test AMAPA, percentage damage caused to the plant (five-point scale) ([12]; 250 g/Ha (*)): 0
4 | CCn1c(Cn2nc(C(F)(F)F)cc2Cl)cc(=O)c(C(=O)O)c1-c1ccc(Cl)c(Cl)c1 [Compound 169, 6-[[5-chloro-3-(trifluoromethyl)pyrazol-1-yl]methyl]-2-(3,4-dichlorophenyl)-1-ethyl-4-oxo-pyridine-3-carboxylic acid] | 4 (4=61-80%) | – | – | – | – | – | 3 (3=41-60%) | – | – | 3 (3=41-60%) | – | 4 (4=61-80%) | – | 3 (3=41-60%) | – | 4 (4=61-80%) | – | – | 0 | 1 (1=0-20%) | Pre-emergence Test SETFA, percentage damage caused to the plant (five-point scale) ([4]; 250 g/Ha (*)): 5 (5=81-100%); Pre-emergence Test ECHCG, percentage damage caused to the plant (five-point scale) ([5]; 250 g/Ha (*)): 4 (4=61-80%); Pre-emergence Test IPOHE, percentage damage caused to the plant (five-point scale) ([7]; 250 g/Ha (*)): 1 (1=0-20%); Pre-emergence Test AMAPA, percentage damage caused to the plant (five-point scale) ([12]; 250 g/Ha (*)): 1 (1=0-20%)
5 | CCn1c(Cn2nccc2OC(F)F)cc(=O)c(C(=O)O)c1-c1ccc(Cl)c(Cl)c1 [Compound 85, 2-(3,4-dichlorophenyl)-6-[[5-(difluoromethoxy)pyrazol-1-yl]methyl]-1-ethyl-4-oxo-pyridine-3-carboxylic acid] | 4 (4=61-80%) | – | – | – | – | – | 0 | – | – | 0 | – | 0 | – | 2 (2=21-40%) | – | 4 (4=61-80%) | – | – | 0 | 0 | Pre-emergence Test SETFA, percentage damage caused to the plant (five-point scale) ([4]; 250 g/Ha (*)): 3 (3=41-60%); Pre-emergence Test ECHCG, percentage damage caused to the plant (five-point scale) ([5]; 250 g/Ha (*)): 2 (2=21-40%); Pre-emergence Test IPOHE, percentage damage caused to the plant (five-point scale) ([7]; 250 g/Ha (*)): 1 (1=0-20%); Pre-emergence Test AMAPA, percentage damage caused to the plant (five-point scale) ([12]; 250 g/Ha (*)): 0
6 | CCn1c(Cn2nc(C(F)(F)F)nc2C)cc(=O)c(C(=O)O)c1-c1ccc(Cl)c(Cl)c1 [Compound 108, 2-(3,4-dichlorophenyl)-1-ethyl-6-[[5-methyl-3-(trifluoromethyl)-1,2,4-triazol-1-yl]methyl]-4-oxo-pyridine-3-carboxylic acid] | 0 | 0 | 0 | 0 | 0 | 0 | 0 | 0 | 0 | 0 | 0 | 0 | 1 (1=0-20%) | 1 (1=0-20%) | 2 (2=21-40%) | 1 (1=0-20%) | 2 (2=21-40%) | 0 | – | – | –
7 | CCn1c(Cn2ncnc2OC)cc(=O)c(C(=O)O)c1-c1ccc(Cl)c(Cl)c1 [Compound 124, 2-(3,4-dichlorophenyl)-1-ethyl-6-[(5-methoxy-1,2,4-triazol-1-yl)methyl]-4-oxo-pyridine-3-carboxylic acid] | 0 | – | – | – | – | – | 1 (1=0-20%) | – | – | 0 | – | 1 (1=0-20%) | – | 4 (4=61-80%) | – | 2 (2=21-40%) | – | – | 0 | 1 (1=0-20%) | Pre-emergence Test SETFA, percentage damage caused to the plant (five-point scale) ([4]; 250 g/Ha (*)): 0; Pre-emergence Test ECHCG, percentage damage caused to the plant (five-point scale) ([5]; 250 g/Ha (*)): 0; Pre-emergence Test IPOHE, percentage damage caused to the plant (five-point scale) ([7]; 250 g/Ha (*)): 0; Pre-emergence Test AMAPA, percentage damage caused to the plant (five-point scale) ([12]; 250 g/Ha (*)): 1 (1=0-20%)
